pKd: −log10 of the molar value. Read-outs that look alike come from different tables or passages of the source. {C6SH} = six-carbon thiol for deposition on gold; {MB} = methylene blue redox reporter
What was measured:
[1] = E-AB sensor titration curves in working buffer (square wave voltammetry); format: binding; settings: simple buffered solution
Description: Electrode functionalization. […] This was then dissolved in “assembling buffer” (10 mM Na2HPO4 with 1 M NaCl and 1 mM MgCl2 at pH 7.3) at a final concentration of 500 nM. The electrochemically cleaned gold electrodes were then immersed in 200 μL of this solution for 1 hour in the dark. Following this the electrode surface was rinsed with distilled water and incubated overnight at 4° C. in assembling buffer containing 5 mM 6-mercaptohexanol, followed by a further rinse with distilled water before use. […] These were then dissolved in buffer (10 mM Na2HPO4 with 1 M NaCl and 1 mM MgCl2 at pH 7.3) using different ratio of the two DNA probes. The total oligonucleotide concentration was kept constant at 500 nM to maintain a constant DNA probes packing density. The electrochemically cleaned gold electrodes were then immersed in 200 μL of this solution composed of two DNA probes for 1 hour in the dark. Following this step, the electrode surface was rinsed with distilled water and incubated overnight at 4° C. in assembling buffer containing 5 mM 6-mercaptohexanol, followed by a further rinse with distilled water before use. In-vitro measurements. Electrochemical measurements were performed at room temperature using a CH[…] potentiostat with a CHI684 Multiplexer (CH Instruments, Austin, Tex.) and a standard three-electrode cell containing a platinum counter electrode and a Ag/AgCl (3 M KCl) reference electrode. […] Titration curves. […] Using the values estimated from the previous fitting procedure the raw signal current was converted in signal change % (C%) using the following equation: […]

[2] = E-AB sensor binding curves in flowing undiluted whole blood
Description: Titration curves. Experimental titration curves were performed in 10 mL of working buffer (137 mM NaCl, KCl 2.7 mM, Na2HPO4 10 mM, KH2PO4 1.8 mM at pH 7.3) using three E-AB sensors modified with the oligonucleotide probe and using a SWV frequency of 10 and 120 Hz.
The binding curves performed in whole blood were conducted following the previous described experimental approach but using a closed-loop system with a continuous flow of whole blood (total volume of 20 mL at 1 mL/s) through a circulator pump.

[3] = Square wave voltammetry frequency vs signal change (%); format: binding; settings: aptamer alone on sensor
Description: Square wave voltammetry frequency vs signal change (%) plot. […] Then the estimated signal change (%) was plotted in function of the relative square wave frequency.

[4] = Solution binding of the unmodified aptamer, using the intrinsic fluorescence of irinotecan; settings: unmodified aptamer free in solution, read-out: dissociation constant
[5] = Sensor equilibration time; format: binding; settings: in buffer, clinically relevant concentrations, 500 Hz
Description: Sensor equilibration time. The sensor's equilibration time was determined using the above experimental approach and interrogating the sensor every 5 s in working buffer and using a SWV frequency of 500 Hz. […] The observed signal change was fitted to a single exponential decay to obtain the equilibration time constant of the sensor.

[6] = tested on: E-AB sensor; assay: In vivo control injections, sensor specificity; parameters: species or system Sprague-Dawley rats; settings: camptothecin E-AB sensor in live rat, KDM
Description: FIGS. 6A, 6B, and 6C. FIG. 6A depicts signals collected at high (120 Hz) and low (10 Hz) frequencies by a sensor of the invention. […] FIG. 6B: taking the difference (KDM) between the normalized high (120 Hz) and low (10 Hz) frequency signals produces a stable baseline.

[7] = unstructured 10-base strand; cited from earlier work
[8] = In vivo pharmacokinetic measurement with indwelling E-AB sensor in jugular vein; settings: rat; for distribution rate (a): intravenous
Description: In-vivo measurements. All in vivo measurements were performed using a three-electrode setup in which the counter electrodes were made of platinum wire and the reference electrodes were a silver wire coated with a silver chloride film as described above. The measurements carried out in vivo were recorded using a handheld potentiostat from CH Instruments (Model 1242 B). Square Wave Voltammetry (SWV) was performed using a potential window of −0.1 to −0.45 V, a potential step of 0.001 V and 0.05 V amplitude
For in vivo measurements a 30 min sensor baseline was established before the drug infusion. A 3 mL syringe filled with the target drug was connected to the sensor-free catheter (placed in the jugular opposite that in which the sensor is emplaced) and placed in a motorized syringe pump. […] After drug infusion, recordings were taken for up to 1 hour before the next infusion. The real-time plotting and analysis of voltammetric data were carried out with the help of a script written in Python.
Animals. In vivo measurements were performed in male and female Sprague-Dawley rats (4-5 months old) weighing between 300 and 500 g. All animals were pair housed in a standard light cycle room (08:00 on, 20:00 off) and allowed ad libitum access to food and water. For in vivo measurements rats were induced under 5% isoflurane anesthesia in a Plexiglas anesthesia chamber. The rats were then maintained on 2-3% isoflurane gas for the duration of the experiment. A small incision was made above each vein, then each vein was isolated. A small hole was cut into each vein with spring-loaded microscissors. The silastic catheter inserted into the left jugular vein was constructed with a bent steel cannula with a screw-type connector and silastic tubing (11 cm, i.d. 0.64 mm, o.d. 1.19 mm). […]
where A and B are amplitudes, and […] for distribution and elimination, respectively. […] The area under the curve (AUC) was calculated using the parameters A, B, α and β, because integrating the equation 5 from 0 to infinity, it holds: […]
The clearance (ClT) was calculated by the equation: […]

Which “signal gain relative to other variants” value [1] does the source give for “CA32: truncated camptothecin aptamer: 5′-TCCGGACTTGGGTGGGTGGGTTGGGGTACGGT-3′ (DNA TCCGGACTTGGGTGGGTGGGTTGGGGTACGGT; listed as DNA, chemistry not fully specified)” here?
The value was “greatest signal gain”.

What about the “E-AB sensing performance in whole blood” value [2] of the same compound?
The value was “supported high-gain E-AB sensing”.

What about the “dependence of gain on square-wave frequency” value (from here on “dependence of gain”) [3] of the same compound?
Its value is “only a weak function of square-wave frequency”.

With “CA40: 40-base truncation of the known camptothecin-binding DNA aptamer; G-quadruplex flanked by a 12-base-pair stem (DNA ACGCTCCGGACTTGGGTGGGTGGGTTGGGGTACGGTGCGT; DNA, 5' {C6SH}, 3' {MB}, backbone not given here; further chemistry not fully specified)” as the compound, how does the pKd ([4]; listed as parent aptamer) read?
Its pKd is 6.32.

And the pKd [4]?
Its pKd is ~6.32.

And the gain [2]?
The gain was “about 15%”.

What about the “association and dissociation kinetics, time constants” value [5] of the same compound?
The value was < 5 s.

For “CA40_2MM: camptothecin aptamer, two mismatches: 5′-ACGCTCTGGACTTGGGTGGGTGGGTTGGGGTACGGTGTGT-3′ (DNA ACGCTCTGGACTTGGGTGGGTGGGTTGGGGTACGGTGTGT; listed as DNA, chemistry not fully specified)”, which “signal gain relative to other variants” value [1] is on record?
The value was “greatest signal gain”.

With `O=c1[nH]cc(F)c(=O)[nH]1` [5-fluorouracil] as the compound, how does the “sensor response to control injection” value [6] read?
Its value is “do not produce any measurable sensor response”.

With “SEQ ID NO: 8: secondary moiety: unstructured 10-base strand, random sequence of adenines and thymines, reporter-modified (DNA ATTATTTTTT; reporter-modified, reporter and position not given here)” as the compound, how does the “rate of electron transfer” value [7] read?
Its value is 80 per second.

What does the source list for `CCc1c2c(nc3ccc(OC(=O)N4CCC(N5CCCCC5)CC4)cc13)-c1cc3c(c(=O)n1C2)COC(=O)[C@]3(O)CC` [irinotecan]?
variation in CMAX or the rate of the distribution phase between rats ([8]; both, Sprague-Dawley, in vivo, 20 mg/kg): 10-20%; distribution rate (a) ([8]; 10 mg kg (first value)): 0.58 ± 0.07 min; distribution rate (a) ([8]; 20 mg kg (second value)): 0.48 min

With “CA16: camptothecin aptamer, only the G-quadruplex binding pocket: 5′-GGGTGGGTGGGTTGGG-3′ (chemistry not given here)” as the compound, how does the “signal gain relative to other variants” value [1] read?
The value was “greatest signal gain”.

And the “E-AB sensing performance in whole blood” value [2]?
The value was “supported high-gain E-AB sensing”.

And the “dependence of gain” value [3]?
The value was “only a weak function of square-wave frequency”.

For “CA28: truncated camptothecin aptamer: 5′-CGGACTTGGGTGGGTGGGTTGGGGTACG-3′ (DNA CGGACTTGGGTGGGTGGGTTGGGGTACG; listed as DNA, chemistry not fully specified)”, which “signal gain relative to other variants” value [1] is on record?
The value was “greatest signal gain”.

And the “E-AB sensing performance in whole blood” value [2]?
Its value is “supported high-gain E-AB sensing”.

What about the “dependence of gain” value [3] of the same compound?
The value was “only a weak function of square-wave frequency”.

From patent US20220225910A1, “Modulating Electron Transfer Kinetics in E-DNA-type Sensors” (The Regents of the University of California, priority 2019, published 2022)
